The values that follow come from ChEMBL document CHEMBL1128146, “Tricarbonyl 6 arene chromium (0) based antitumor agents” (Bioorg Med Chem Lett, 1995).

The test system of this experiment is HCT-116. Put plainly: Inhibitory activity against HCT116 tumor cell line. The experiment is classed as functional, cell-based. The conditions noted are these: Homo sapiens.
Consider `CS(=O)(=O)OCCCN(CCCOS(C)(=O)=O)c1ccccc1`, for which the IC50 stood at 99 nM. The result for `CC(C)(C)[Si](C)(C)OCCN(CCO[Si](C)(C)C(C)(C)C)c1ccccc1` reads 1900 nM; that for `CS(=O)(=O)OCCN(CCOS(C)(=O)=O)c1ccccc1`, 25 nM.
